US20090270400A1 (priority 2004, published 2009)
Like-named read-outs stand apart in the source and are kept apart here.

Tested on: carrageenin-induced hyperalgesia on a rat's paw
Conditions: in vivo

| SMILES | dose starting from which the pain threshold following a mechanical stimulus applied to the rats' paws is significantly reduced (iv) [mg/kg] | dose starting from which the pain threshold following a mechanical stimulus applied to the rats' paws is significantly reduced (ip) [mg/kg] |
| --- | --- | --- |
| N[C@@H](CSSC[C@H](N)C(=O)N1CCn2cc(-c3ccccc3)nc2[C@@H]1CC1CCCCC1)C(=O)N1CCn2cc(-c3ccccc3)nc2[C@@H]1CC1CCCCC1 [compound 1, (1R)-1-[({(2R)-2-amino-3-[(8S)-8-(cyclohexylmethyl)-2-phenyl-5,6-dihydroimidazo [1,2-α]pyrazin-7(8H)-yl]-3-oxopropyl}dithio)methyl]-2-[(8S)-8-(cyclohexylmethyl)-2-phenyl-5,6-dihydroimidazo [1,2-α]pyrazin-7(8H)-yl]-2-oxoethylamine] | ≥ 1 | – |
| CN1CC[C@]23c4c5ccc(O)c4O[C@H]2[C@@H](O)C=C[C@H]3[C@H]1C5 [morphine] | – | ≥ 1 |
